Entries after “also recorded” stand apart in the source; their conditions may differ.
B1: purified IFN gamma: purified interferon gamma, cytokine (protein, UniProt P01579 24-161, looked up)
Interferon gamma: QDPYVKEAENLKKYFNAGHSDVADNGTLFLGILKNWKEESDRKIMQSQIVSFYFKLFKNFKDDQSIQKSVETIKEDMNVKFFNSNKKKRDDFEKLTNYSVTDLNVQRKAIHELIQVMAELSPAAKTGKRKRSQMLFRG

Key:
Format in all cases: cell-based
[1] = test system: HeLa-RIP3^− or HeLa-RIP3^+ cells; assay: Dose response for chemotherapeutic agents, cell viability by trypan blue exclusion; conditions: 48 hour exposure; for EC50: read-out: ED50 at 48 hours (cell death)
Protocol: HeLa-RIP3^− or HeLa-RIP3^+ cells (250,000/well) were seeded in six-well plates in complete DMEM medium, and after 24 hours, cells were treated with multiple doses of Fluorouracil. Cell viability was determined 48 hours post treatment via trypan blue exclusion analysis.
HeLa-RIP3^− or HeLa-RIP3^+ cells (250,000/well) were seeded in six-well plates in complete DMEM medium, and after 24 hours, cells were treated with multiple doses of the Trabectedin, Birinapant, or Cisplatin. Cell viability was determined 48 hours post treatment via trypan blue exclusion analysis.

[2] = test system: HeLa-RIP3^− cells; conditions: Birinapant 5 μM or 30 μM, 48 hours
Protocol: (§1) HeLa-RIP3^− cells (250,000/well) cells were plated in six-well plates 24 hours prior to infection. ASN-002 infections were performed in serum-free medium at multiplicities of infection (MOI) of 10. Two doses of Fluorouracil were co-administered with viruses, and cell death kinetics was analyzed over the period of 3 days.
as §1, with “chemotherapeutic agents” for “Fluorouracil”

[3] = test system: RIP3^− (necroptosis-deficient) HeLa cells; assay: Cell death in the presence of a pan caspase inhibitor of apoptosis; conditions: for cell death: no inhibitor, Trabectedin alone or plus AdCMV-NULL
Protocol: In follow-up experiments, RIP3^− (necroptosis-deficient) HeLa cells were subjected to the same treatments as described above.
(§2) In order to understand which of several possible cell death pathways are activated by Trabectedin treatment alone and in combination with IFN gamma (virus expressed or exogenously added), experiments were carried out with these agents, alone or in combination, in the presence of inhibitors of apoptosis and/or necroptosis inhibitors in both HeLa (RIP3^+/necroptosis-competent) cells and HeLa (RIP3^−/necroptosis-deficient) cells.

[4] = test system: HeLa (RIP3^+/necroptosis-competent) cells; assay: Cell death in the presence of inhibitors of apoptosis and necroptosis; conditions: for cell death: no inhibitor, Trabectedin 2.5 nM (alone or plus AdCMV-NULL); for cell death in the presence of zVAD: pan caspase inhibitor zVAD 50 μM
Protocol: In order to understand which of several possible cell death pathways are activated by Fluorouracil or ASN-002 treatment alone and in combination, experiments were carried out with these agents in the presence of inhibitors of apoptosis and/or necroptosis in HeLa (RIP3^+/necroptosis-competent) cells.
as §2

[5] = test system: HeLa-RIP3^+ cells; assay: Induction of cell death by TNF alpha in the presence of cycloheximide and pan caspase inhibitor zVAD, trypan blue exclusion; conditions: TNF alpha 50 ng/ml in the presence of cycloheximide (250 ng/ml) plus zVAD (50 μM); relative to untreated cells
Protocol: HeLa-RIP3 cells (250,000/well) were plated in six-well plates 24 hours prior to treatment with TNF alpha and cycloheximide (TCZ treatment). Cells were pre-treated with CHX (250 ng/ml) and the pan caspase inhibitor zVAD (50 μM) one hour before TNF alpha (50 ng/ml) treatment. Cell viability was determined after 12-15 hours by trypan blue exclusion analysis.

[6] = test system: HeLa (RIP3^−) cells; assay: Induction of cell death by TNF alpha, trypan blue exclusion; conditions: TNF alpha 50 ng/ml; under any condition; 12-15 hours
[7] = Fluorouracil 10 μM, Trabectedin 2.5 nM

Molecule | EC50 [1] | cell death in the presence of zVAD relative to treatment without inhibitor [3] | cell death ([4]; Fluorouracil 10 μM) | cell death in the presence of zVAD [4, 7] | cell death [3] | further results
CC[C@H](NC(=O)[C@H](C)NC)C(=O)N1C[C@@H](O)C[C@H]1Cc1c(-c2[nH]c3cc(F)ccc3c2C[C@@H]2C[C@H](O)CN2C(=O)[C@H](CC)NC(=O)[C@H](C)NC)[nH]c2cc(F)ccc12 [Birinapant] | ~30 µM | – | – | – | – | cell death in combination with control adenovirus (Ad-CMV-NULL) relative to agent alone [2]: same level of cell death as Birinapant alone; also recorded: indistinguishable from that induced by Birinapant alone
N.N.[Cl][Pt][Cl] [Cisplatin] | – | – | – | – | – | ED50 at 48 hours (cell death) [1]: ~10 µg/mL
O=c1[nH]cc(F)c(=O)[nH]1 [Fluorouracil] | ~50 µM | slightly lower | approximately 35% | about 80% | – | cell death in the presence of Necrosulfonamide (NSA) ([4]; necroptosis inhibitor NSA 1 μM, Fluorouracil 10 μM): 45%
COc1cc2c(cc1O)CCN[C@]21CS[C@@H]2c3c(OC(C)=O)c(C)c4c(c3[C@H](COC1=O)N1[C@@H]2[C@H]2c3c(cc(C)c(OC)c3O)C[C@@H]([C@@H]1O)N2C)OCO4 [Trabectedin] | ~0.01 µM | – | approximately 35% | about 95% | 33% | cell death in the presence of zVAD ([3]; pan caspase inhibitor zVAD): 87%; cell death in the presence of NSA relative to treatment without inhibitor ([4]; NSA): slightly lower; cell death in the presence of both zVAD and NSA ([4]; zVAD plus NSA, Fluorouracil 10 μM, Trabectedin 2.5 nM): about 60%
TNF alpha | – | – | – | – | – | cell death [5]: about 70%; induction of cell death [6]: failed to induce cell death
B1 | – | marked, though not complete, rescue of cell death | ~30% | – | ~30% | cell death in the presence of zVAD relative to treatment without inhibitor ([3]; listed as IFN gamma): significantly reduced cell death

Source: patent publication US11273170B2, “Methods of treating cancer” (Ascend Biopharmaceuticals Ltd, priority 2016, dated 2022)
